Measurements reported in PubChem BioAssay (NCI).
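Assay format: 96-well plates, 48-hour exposure. At the GI50, growth is halved. TGI marks complete inhibition of growth.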

Assays:
Test in all cases: inhibition of tumour cell growth, NCI panel, 48 h
SNB-75 CNS = tested on: SNB-75 CNS
HL-60(TB) leukemia = tested on: HL-60(TB) leukemia
SK-MEL-28 melanoma = tested on: SK-MEL-28 melanoma
T-47D breast = tested on: T-47D breast
CAKI-1 renal = tested on: CAKI-1 renal
OVCAR-4 ovarian = tested on: OVCAR-4 ovarian
HT29 colon = tested on: HT29 colon
EKVX NSCLC = tested on: EKVX NSCLC
MDA-MB-435 = tested on: MDA-MB-435
IGROV1 ovarian = tested on: IGROV1 ovarian
SF-295 CNS = tested on: SF-295 CNS
OVCAR-3 ovarian = tested on: OVCAR-3 ovarian
PC-3 prostate = tested on: PC-3 prostate
CCRF-CEM leukemia = tested on: CCRF-CEM leukemia
SK-OV-3 ovarian = tested on: SK-OV-3 ovarian
SF-539 CNS = tested on: SF-539 CNS
HS 578T breast = tested on: HS 578T breast
A549 NSCLC = tested on: A549 NSCLC
UACC-62 melanoma = tested on: UACC-62 melanoma
NCI/ADR-RES ovarian = tested on: NCI/ADR-RES ovarian
RXF 393 renal = tested on: RXF 393 renal
NCI-H522 lung = tested on: NCI-H522 lung
KM12 colon = tested on: KM12 colon
M14 melanoma = tested on: M14 melanoma
NCI-H460 lung = tested on: NCI-H460 lung
HCT-15 colon = tested on: HCT-15 colon
HCC-2998 colon = tested on: HCC-2998 colon
NCI-H23 lung = tested on: NCI-H23 lung

In the case of `COc1ccc(CC(C)=C(c2ccc(OCCN3CCCCCC3)cc2)c2ccc(OCCN3CCCCCC3)cc2)cc1`, the TGI (SNB-75 CNS) is reported as 1160 nM, the GI50 (HL-60(TB) leukemia) is reported as 99 nM and the TGI (HL-60(TB) leukemia) is reported as 229 nM. The GI50 (SK-MEL-28 melanoma) was 91.1 nM, the TGI (SK-MEL-28 melanoma) was 166 nM and the GI50 (T-47D breast) was 219 nM. It also gave a TGI (T-47D breast) of 955 nM, a GI50 (CAKI-1 renal) of 345 nM and a TGI (CAKI-1 renal) of 930 nM. The GI50 (OVCAR-4 ovarian) was 432 nM, the TGI (OVCAR-4 ovarian) was 1110 nM and the GI50 (HT29 colon) was 84.3 nM. It also gave a TGI (HT29 colon) of 181 nM, a GI50 (EKVX NSCLC) of 615 nM and a TGI (EKVX NSCLC) of 1300 nM. For the same molecule, the GI50 (MDA-MB-435) was 89.1 nM, the TGI (MDA-MB-435) was 166 nM and the GI50 (IGROV1 ovarian) was 370 nM. It also gave a TGI (IGROV1 ovarian) of 1020 nM, a GI50 (SF-295 CNS) of 300 nM and a TGI (SF-295 CNS) of 861 nM. The GI50 (OVCAR-3 ovarian) was 113 nM, the TGI (OVCAR-3 ovarian) was 239 nM and the GI50 (PC-3 prostate) was 265 nM. The TGI (PC-3 prostate) was 860 nM, the GI50 (CCRF-CEM leukemia) was 158 nM and the TGI (CCRF-CEM leukemia) was 609 nM. The GI50 (SK-OV-3 ovarian) was 612 nM, the TGI (SK-OV-3 ovarian) was 1240 nM and the GI50 (SF-539 CNS) was 97.8 nM. The TGI (SF-539 CNS) was 194 nM, the GI50 (HS 578T breast) was 175 nM and the TGI (HS 578T breast) was 757 nM. For the same molecule, the GI50 (A549 NSCLC) was 343 nM, the TGI (A549 NSCLC) was 1020 nM and the GI50 (UACC-62 melanoma) was 98.7 nM. It also gave a TGI (UACC-62 melanoma) of 199 nM, a GI50 (NCI/ADR-RES ovarian) of 655 nM and a TGI (NCI/ADR-RES ovarian) of 1410 nM. It also gave a GI50 (RXF 393 renal) of 348 nM, a TGI (RXF 393 renal) of 1050 nM and a GI50 (NCI-H522 lung) of 443 nM. For the same molecule, the TGI (NCI-H522 lung) was 1200 nM, the GI50 (KM12 colon) was 240 nM and the TGI (KM12 colon) was 823 nM. It also gave a GI50 (M14 melanoma) of 88.6 nM, a TGI (M14 melanoma) of 171 nM and a GI50 (NCI-H460 lung) of 100 nM. For the same molecule, the TGI (NCI-H460 lung) was 186 nM, the GI50 (HCT-15 colon) was 121 nM and the TGI (HCT-15 colon) was 382 nM. The GI50 (HCC-2998 colon) was 88.1 nM, the TGI (HCC-2998 colon) was 182 nM and the GI50 (NCI-H23 lung) was 709 nM. It also gave a TGI (NCI-H23 lung) of 1410 nM.
